Values joined by “and” are separate entries in the source; they are usually repeats but may differ in a detail not shown here. Equal values may be shown once. Active and inactive are the calls of the source.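 The calls were made as follows: active = compounds giving half or more protection of infected cells from virus-caused growth loss, again on retest; inactive = the rest.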 Where a SMILES comes first, the peptide text is derived from it. The star is where a group is joined. Cbz = O=C(OCc1ccccc1)*
Test system: CEM cells HIV-1 protection, formazan growth assay
Test: NCI AIDS Antiviral Assay
Conditions: for IC50: measured here: growth of uninfected CEM cells
Summary of the method: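 Category rules: moderately active means at least 50% protection on retest, and confirmed active means 100% protection reproducibly. The underlying data came from a formazan growth assay in HIV-1-infected CEM cells.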

SMILES	EC50 [µM]	IC50	outcome
N#CC(C#N)=Cc1c(O)ccc2ccccc12	> 200	9.77 µM	
N[C@H]1CCC[C@@H](O)C1O (some centres not stated)	> 200	> 200 µM	
O=C1c2cccnc2S(=O)(=O)N1c1ccc([N+](=O)[O-])cc1	> 200	23.4 µM	
O=C(O)C1CCC(c2ccc(Cl)cc2Cl)=N1 (configuration not stated)	> 200	> 200 µM	
CN(CCNC(=O)c1cc(-c2ccccc2)nc2ccccc12)CCNC(=O)c1cc(-c2ccccc2)nc2ccccc12	> 20	10.5 µM	
CCOC(=O)C1=CC(C(C)CC(=O)CC(=O)O)CC1 (configuration not stated)			active
N#CCCN(C1=NN(C(=O)CC(=O)Nc2ccc(Cl)cc2)C(c2ccccc2)C1)c1ccc(Cl)cc1 (configuration not stated)	> 50.1	> 50.1 µM	
O=C(NCCCCNCCCNC(=O)C(F)(F)F)C(F)(F)F	> 200	> 200 µM	
N#C/C(=C\NC(=S)N=Nc1c(O)[nH]c2ccccc12)c1nc2ccccc2s1	> 200	> 200 µM	
Cc1ncc([N+](=O)[O-])n1CCNC(=O)Cn1ccnc1[N+](=O)[O-]	> 200	> 200 µM	
Cc1cccc(/C=C(\C#N)C(=O)c2ccccc2)c1	> 363	178 µM	
COc1cc2c(c(OC)c1OC)-c1oncc1CC2	166	282 µM	
O=S1c2ccccc2N=C(c2ccc3ccccc3c2)CC1c1ccccc1 (configuration not stated)	> 19.1	> 19.1 µM	
Cc1c(Cl)cccc1NC(=O)CC1Sc2ccccc2NC1=O (configuration not stated)	> 27.5	> 27.5 µM and 15.5 µM	
COc1cc(C2c3cc4c(cc3OC(NN)C2C)OCO4)cc(OC)c1OC (configuration not stated)	> 200	1 µM	
OC1(c2ccccc2)CC(c2ccccc2)c2ccccc2O1 (configuration not stated)	> 200	31.6 µM	
O=C1COCC(=O)N1	> 2190	> 2190 µM	
[N-]=[N+]=NCC(O)Cn1cnc2c(NC(=O)c3ccccc3)ncnc21 (configuration not stated)	> 741	427 µM	
CC1CCCC2(C1)OCC(O)CO2 (configuration not stated)			inactive
C1CN2CCO[SiH](O1)OCC2			inactive
NNC(=O)c1n[nH]nc1C(=O)NN	> 200	> 200 µM	
COc1cccc(NC(=O)CSc2nnc(Cc3ccccc3)o2)c1	> 100	> 100 µM	
COc1cccc(/C=C/C(=O)c2sc(C(N)=S)nc2C)c1O	> 11.2	> 11.2 µM	
CN(C)CCNc1ccc2c(=O)n(CCN(C)C)c(=O)n3c4ccccc4c(=O)c1c23	> 0.1	0.00933 µM	

SMILES	EC50 [µM]	IC50	outcome
CC1(C)OC2OC(COC(=O)C=[N+]=[N-])C3OC(C)(C)OC3C2O1 (configuration not stated)	> 200	> 200 µM	
COc1ccc2c(c1)CC1=C(O2)c2ccc(OC)cc2OC1	> 200	10.2 µM	
O=C1Nc2ccccc2/C1=c1/sc2nc3ccccc3n2c1=O			inactive
O=C(O)CCC(NC(=O)/C(=C/c1ccccc1)NC(=O)c1ccccc1)C(=O)O (configuration not stated)	> 200	> 200 µM	
CN(C)CCn1c2c3ccccc3ccc2c2oc(=O)c3ccccc3c21	> 18.2	8.51 µM	
CCCCOC(=O)OC1CCC2(C)CC3C=CC2(OO3)C1(C)C (configuration not stated)	> 20	4.27 µM	
COc1cc(O)cc(O)c1C(=O)CC(Cl)(Cl)Cl	> 316	170 µM	
CCCCCCCCCCCC(=O)Oc1c(Cl)cc(Cl)c(OC(=O)C(=O)Oc2c(Cl)cc(Cl)c(OC(=O)CCCCCCCCCCC)c2Cl)c1Cl			inactive
COc1ccc(/C(Br)=C2\OC(=O)c3ccccc32)cc1	> 200	> 200 µM	
CC(C)CN1CC(C)C(=O)NC1=O (configuration not stated)			inactive
CCOC(=O)CCC(NC(=O)CNC(=O)CNC(=O)C(CCC(=O)OCC)NC(=O)C(CCC(=O)OCC)NC(=O)C(CCC(=O)OCC)NC(=O)OCc1ccccc1)C(=O)NC(CCC(=O)OCC)C(=O)NC(CCC(=O)OCC)C(=O)OCC (configuration not stated) (Cbz-E(OEt)E(OEt)E(OEt)GGE(OEt)E(OEt)E(OEt)-OEt; configuration not given here)	> 200	> 200 µM	
CCOC(=O)N/N=C(/N)c1cccc(Br)c1	> 200	> 200 µM	
CC(=O)OCC1OC(N2C(=O)[C@@H](Oc3ccccc3)[C@H]2c2ccccc2)C(OC(C)=O)C(OC(C)=O)C1OC(C)=O (some centres not stated)	> 200	174 µM	
C/C(=C\c1ccccc1)C(O)C(=O)c1nc2ccc(Cl)cc2[nH]c1=O (configuration not stated)	> 708	33.9 µM	
O=C(CNc1ccccc1Cl)Nn1c(-c2ccccc2)nc2ccccc2c1=O	> 200	30.2 µM	
CN(C)CC1C(O)C2CCN1CC2 (configuration not stated)			inactive
CC1CCCC(C(=O)CC2CC(=O)NC(=O)C2)C1=O (configuration not stated)	> 200	> 200 µM	
O=Nc1ccccc1	> 200	> 200 µM	
O=C(O)CCSC(=O)Nc1ccccc1F			inactive
Cc1cc(C)c2c(c1)C/C(=C\c1cccc(C)c1C(=O)O)C2=O	> 200	129 µM	
CN(NC(=O)c1cccs1)C1=NCCCCN1	> 200	> 200 µM	
O=C1CSC(c2ccc(Cl)cc2)N1c1ccc(Oc2ccc(Cl)cc2)c(Cl)c1 (configuration not stated)	> 200	24 µM	
COC(=O)/C=C/C(=O)C1C(C(=O)OC)C2(C(=O)OC)CCC1(C(=O)OC)N2 (configuration not stated)			inactive
CN(C)CCNC(=O)Cn1cc([N+](=O)[O-])c(=O)c2ccccc21	> 200	> 200 µM	
